Values of other authors, collected in US9005898B2, “Method for controlling hair growth, method for selecting or evaluating hair growth control agent, and hair growth suppression agent” (Kao Corporation, priority 2010, dated 2015).

Tested on: human hair follicle
Conditions: in a dose-dependent manner; Patent Document 7

O=CN1CC/C(=C\c2ccc3c(c2)OCO3)C1=O [KNK437]
growth of the human hair follicle: reduced
